Results on 2 molecules are retold here after patent US8691796B2, “Pharmaceutical composition and method for inhibiting inflammation” (China Medical University, priority 2010, dated 2014).

Type in all cases: cell-based, human
For assay [1], the system named is IL-8. The assay can be described thus: IL-8 concentration in supernatant of treated FLS (sandwich ELISA). The settings on record: FLS from patients with rheumatoid arthritis, treated 24 hours, mixture = 100 μg hyaluronic acid + 5 micro-mole lovastatin in 1 ml, control group 736.00.
Description: The non-adherent cells were washed out with a phosphate buffer solution (PBS), the medium was refreshed, and the retained adherent cells were cultivated for two weeks. The above procedure was repeated three to six times, and the retained cells were FLS, which were used in the following experiments.
The FLS prepared from Experiment A were incubated in a medium containing no serum for 24 hours until the cells grew to a subconfluence state, and the cells were incubated in a DMEM medium containing 10% fetal bovine serum. […]
Assay [2] has as its system Fibroblast-like synoviocytes (FLS). The assay can be described thus: Inflammation level of FLS judged from secreted TNF-α and IL-8. As to conditions: FLS from patients with RA, treated 24 hours; TNF-α and IL-8 versus control group / HA only. How it is done:
(§1) Fibroblast-like synoviocytes (FLS) from seven patients with rheumatoid arthritis (RA) were collected and incubated. First, the joint synovia from the patients were cut into small pieces and suspended in a DMEM medium (Dulbecco modified eagle's medium, comprising 1.5 g/L sodium bicarbonate (S6297, Sigma-Aldrich Co. St Louis, Mo., USA), 1% penicillin-streptomycin-neomycin (P4083, Sigma-Aldrich Co.), and 10% fetal bovine serum (04-001-1A, Biological Industries, Grand Island, N.Y., USA)), and were incubated in the environment under 37° C., 5% CO2 for three days.
(§2) The non-adherent cells were washed out with a phosphate buffer solution (PBS), the medium was refreshed, and the retained adherent cells were cultivated for two weeks. […]
(§3) The concentrations of two RA-related factors, TNF-α (the standard sample was purchased from eBioscience, Ltd., 88-7340) and IL-8 (the standard sample was purchased from R&D systems, Inc., USA, DY208), in the supernatants collected from Experiment B were measured using a sandwich binding protein assay kit or sandwich ELISA kits (purchased from eBioscience, Ltd. and R&D systems, Inc.) according to the manufacturer's manual and standard curves to observe the expression level of the factors, thereby determining the inflammation condition of the cells. Each sample was analyzed twice, and an ELISA reader (Sunrise Remote, TECAN) was used to conduct the measurement. […]

The subject of assay [3] is TNF-α. The assay can be described thus: TNF-α concentration in supernatant of treated FLS (sandwich ELISA). As to conditions: FLS from patients with rheumatoid arthritis, treated 24 hours, mixture = 100 μg hyaluronic acid + 5 micro-mole lovastatin in 1 ml, control group 347.00. How it is done:
as §1, §2, §3
On the technique in general: ELISA stands for enzyme-linked immunosorbent assay.

On to hyaluronic acid [HA], for which the “IL-8 concentration, Average concentration” value in assay [1] was 353.40 pg/mL. Besides, the “inflammation level (effect of inhibiting the inflammation)” value in assay [2] is “the inflammation level was lowered”. The “TNF-α concentration, Average concentration” value in assay [3] was 296.46 pg/mL.

Regarding `CC[C@H](C)C(=O)O[C@H]1C[C@@H](C)C=C2C=C[C@H](C)[C@H](CC[C@@H]3C[C@@H](O)CC(=O)O3)[C@H]21` [HMG-CoA reductase inhibitor, Lovastatin], the “IL-8 concentration, Average concentration” value in assay [1] worked out at 703.94 pg/mL. Besides, in assay [3], the “TNF-α concentration, Average concentration” value came out at 355.07 pg/mL.
